Results taken from patent US20220088195A1, “Prevention or mitigation of T-cell bispecific antibody-related adverse effects” (Hoffmann-La Roche Inc., priority 2020, published 2022).

Columns and labels:
[1] = tested on: CD4+ and CD8+ T cells; test: T cell degranulation, CD107a staining by FACS at 24h, SKM-1 + HLA-A2 WT-1-TCB; format: cell-based, human
Procedure: FIG. 13. In vitro killing assay set-up and timelines to assess T cell degranulation. PBMCs were co-cultured with SKM-1 target cells (E:T=5:1) and 10 nM HLA-A2 WT-1-TCB in the presence and absence of 100 nM dasatinib. Golgistop and Golgiplug (both BD) and CD107a antibody were added 3 hours after activation with TCB to prevent cytokine externalization.
FIG. 14. CD107a+ populations among CD4+ and CD8+ T cells in the presence and absence of dasatinib for one representative donor, in the assay of FIG. 13. Expression of CD107a on CD4+ and CD8+ T cells was measured by FACS at 24h.
FIG. 15. Percentages of CD107a+ cells among CD4+ (A) and CD8+ (B) T cells in the presence and absence of dasatinib in the assay of FIG. 13. Expression of CD107a on CD4+ and CD8+ T cells was measured by FACS at 24h. Mean of 3 donors+/−SD.
To assess whether dasatinib can efficiently prevent TCB-mediated target cell killing by activated T cells, we set up an in vitro killing assay with two stimulation steps, mimicking an ON/OFF switch. During the first stimulation, PBMCs were activated on carboxyfluorescein succinimidyl ester (CFSE)-labelled SKM-1 tumors cells with HLA-A2 WT-1-TCB in the absence of dasatinib (ON). During the second stimulation, activated PBMCs together with dead CFSE labelled SKM-1 tumors cells were washed and re-stimulated by HLA-A2 WT-1-TCB on fresh CTV labelled SKM-1 tumor cells in the presence of 100 nM dasatinib (OFF). The use of CFSE and CTV labelled SKM-1 tumors allowed to differentiate tumor cells used for first and second stimulation by flow cytometry (FIG. 8). […] Consistently, T cells were activated and functional before the addition of dasatinib in the system. 87.6% of CTV labelled SKM-1 cells were alive upon second stimulation with 10 nM HLA-A2 WT-1 TCB in the presence of 100 nM dasatinib, but only 2.04% of CTV labelled SKM-1 tumor cells were alive upon restimulation with 10 nM HLA-A2 WT-1-TCB in the absence of dasatinib (FIG. 10). […]

[2] = tested on: MKN45 NLR target cells; test: Reversibility killing assay with two and three stimulations (OFF/ON, ON/OFF/ON), MKN45 NLR + CEA-TCB, Incucyte; format: cell-based, human
Procedure: FIG. 16. In vitro killing assay set-up and timelines. PBMCs were stimulated on MKN45 NLR (E:T=10:1) target cells with 1 nM CEA-TCB for 96 hours. Activated PBMCs were washed and restimulated on new MKN45 NLR target cells (E:T=10:1) with 1 nM CEA-TCB in the presence of 25 nM dasatinib for 72 hours. Activated PBMCs were washed to remove dasatinib and restimulated on new MKN45 NLR target cells (E:T=10:1) with 1 nM CEA-TCB (“ON/OFF/ON”, see upper row of table), or vice versa (“OFF/ON/OFF”, see lower row of table). Killing was followed by Incucyte®.
FIG. 17. Real time killing of MKN45 NLR target cells by CEA-TCB in the presence of 25 nM dasatinib (0-72 h) upon first stimulation and in the absence of 25 nM dasatinib (96-170 h) upon restimulation, in the assay of FIG. 16 (“OFF/ON”).
FIG. 19. Real time killing of MKN45 NLR target cells by CEA-TCB in the assay of FIG. 16 (“ON/OFF/ON”).
FIG. 21. CEA-TCB mediated target cell killing. (A) PBMCs were stimulated on MKN45 NLR (E:T=10:1) target cells with 1 nM CEA-TCB for 96 hours in the presence and absence of dasatinib. (B) Activated PBMCs were washed to remove dasatinib and restimulated on new MKN45 NLR target cells (E:T=10:1) with 1 nM CEA-TCB. Killing was followed by Incucyte®.
We then verified if dasatinib's effect is reversible upon its removal. Therefore we set-up a killing assay with two and three stimulations in the presence and absence of dasatinib and followed the killing kinetics using an Incucyte® system (FIG. 16). After each stimulation, effector cells were washed and re-stimulated on fresh MKN45 NLR target cells with 1 nM CEA TCB in the presence and absence of dasatinib allowing to mimic OFF/ON switch and ON/OFF/ON switch.
Lastly, we evaluated if the effect of dasatinib was reversible on activated T cells. Consequently, we supplemented the media with 25 nM dasatinib upon the second stimulation with 1 nM CEA-TCB to prevent killing from activated T cells and then removed the dasatinib upon third stimulation with 1 nM CEA-TCB to verify if killing would be restored. […] We concluded that the effect of dasatinib in the prevention of T cell activation and cytotoxicity is reversible.
For T-cell engaging antibodies, cytokine release peaks are higher upon the first treatment than after subsequent treatments. We were curious to see if low doses of dasatinib could prevent cytokine release while minimally affecting TCB-efficacy upon first stimulation. In killing assays as described in FIG. 16, the cytokine levels upon first treatment with 1 nM CEA-TCB in the presence of 6.25 nM and 12.5 nM dasatinib and upon second treatment with 1 nM CEA-TCB in the absence of dasatinib were measured in the supernatants. […] Its removal upon second stimulation may also balance the cytokine release and restore TCB-induced cytotoxicity due to the reversibility properties of dasatinib.

[3] = 10 nM HLA-A2 WT-1-TCB + 100 nM dasatinib, 24h, one representative donor

Cc1nc(Nc2ncc(C(=O)Nc3c(C)cccc3Cl)s2)cc(N2CCN(CCO)CC2)n1 [dasatinib, N-(2-chloro-6-methylphenyl)-2-[[6-[4-(2-hydroxyethyl)-1-piperazinyl]-2-methyl-4-pyrimidinyl]amino]-5-thiazole carboxamide monohydrate]
cells positive for CD107a among CD4+ T cells [1, 3]: 1.22% | cells positive for CD107a among CD8+ T cells [1, 3]: 2.08% | TCB-induced CD107a expression on CD4+ and CD8+ T cells ([1]; 100 nM dasatinib, 3 donors): prevented | killing induced by 1 nM CEA-TCB during first stimulation ([2]; 6.25 nM and 12.5 nM dasatinib): only partially inhibited the killing | killing of MKN45 NLR target cells (OFF/ON) ([2]; 25 nM dasatinib during first stimulation, removed for second, 1 nM CEA TCB): killing inhibition which was then reversed upon dasatinib removal | killing of MKN45 cells (ON/OFF/ON) ([2]; 25 nM dasatinib upon second stimulation, removed upon third, 1 nM CEA-TCB): inhibited with the addition of 25 nM upon second stimulation and restored upon third stimulation | killing upon removal of dasatinib during second stimulation ([2]; after 6.25 nM and 12.5 nM dasatinib in first stimulation): killing was restored
